From US9096585B2 (Icahn School of Medicine at Mount Sinai, priority 2010, dated 2015)

Test system: influenza viruses
Assay type: cell-based, influenza virus

## Cc1[nH]c2ccc(-c3nnc(SCC(=O)N4CCCC4)o3)cc2c1C [Compound A3]
  generation of A3-resistant influenza viruses: unsuccessful
